In assay [1] the target is T1, Sphingosine kinase 2 (Homo sapiens, UniProt Q9NRA0).
T1 sequence (Q9NRA0 whole entry): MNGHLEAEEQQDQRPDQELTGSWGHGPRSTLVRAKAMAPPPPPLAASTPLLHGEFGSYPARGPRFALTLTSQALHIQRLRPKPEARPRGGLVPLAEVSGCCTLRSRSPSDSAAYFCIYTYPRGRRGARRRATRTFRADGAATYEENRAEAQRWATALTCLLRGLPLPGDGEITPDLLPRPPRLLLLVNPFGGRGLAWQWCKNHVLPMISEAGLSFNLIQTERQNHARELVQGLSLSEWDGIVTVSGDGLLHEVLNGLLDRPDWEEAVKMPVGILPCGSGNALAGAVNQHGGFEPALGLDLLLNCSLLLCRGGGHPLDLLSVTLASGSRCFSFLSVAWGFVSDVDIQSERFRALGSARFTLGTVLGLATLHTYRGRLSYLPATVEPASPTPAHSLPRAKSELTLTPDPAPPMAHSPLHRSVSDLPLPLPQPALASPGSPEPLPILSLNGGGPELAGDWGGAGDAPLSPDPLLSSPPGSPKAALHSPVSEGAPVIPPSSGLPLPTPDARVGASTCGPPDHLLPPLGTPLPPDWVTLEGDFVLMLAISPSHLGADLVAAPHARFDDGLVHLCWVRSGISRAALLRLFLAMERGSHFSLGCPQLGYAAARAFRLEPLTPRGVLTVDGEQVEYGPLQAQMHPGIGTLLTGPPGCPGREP
Nature of the assay: Inhibition of SK2 (unknown origin).

A further assay addresses Sphingosine kinase 1 (Homo sapiens, UniProt Q9NYA1). Nature of the assay: Inhibition of GFP-tagged SK1 (unknown origin) expressed in HEK293 cells using Sph as substrate measured after 30 mins in presence of [gamma32P]ATP by Cerenkov counting analysis. The assay is classed as cell-based.
Assay [2] concerns the target T1, Sphingosine kinase 2. As to the kind of experiment: Inhibition of recombinant human full-length N-terminal His-tagged SK2 expressed in baculovirus infected Sf9 insect cells using Sph as substrate measured after 30 mins in presence of [gamma32P]ATP by Cerenkov counting analysis.
For the next assay, the species on record is Homo sapiens. Nature of the assay: Selectivity index, ratio of IC50 for GFP-tagged SK1 (unknown origin) expressed in HEK293 cells to IC50 for purified SK2 (unknown origin).
The target in assay [3] is T2, Sphingosine kinase 2 (Homo sapiens) (UniProt Q9NRA0).
T2 sequence (whole entry): T1 sequence (Q9NRA0 whole entry)
Nature of the assay: Inhibition of recombinant human full-length N-terminal His-tagged SK2 expressed in baculovirus infected Sf9 insect cells at 3 uM using Sph as substrate measured after 30 mins in presence of [gamma32P]ATP by Cerenkov counting analysis relative to control.

pIC50, pKi: −log10 of the molar value. Where only a bound is given, the exact number is not on record here.

Sphingosine kinase 1, sequence (Q9NYA1 whole entry): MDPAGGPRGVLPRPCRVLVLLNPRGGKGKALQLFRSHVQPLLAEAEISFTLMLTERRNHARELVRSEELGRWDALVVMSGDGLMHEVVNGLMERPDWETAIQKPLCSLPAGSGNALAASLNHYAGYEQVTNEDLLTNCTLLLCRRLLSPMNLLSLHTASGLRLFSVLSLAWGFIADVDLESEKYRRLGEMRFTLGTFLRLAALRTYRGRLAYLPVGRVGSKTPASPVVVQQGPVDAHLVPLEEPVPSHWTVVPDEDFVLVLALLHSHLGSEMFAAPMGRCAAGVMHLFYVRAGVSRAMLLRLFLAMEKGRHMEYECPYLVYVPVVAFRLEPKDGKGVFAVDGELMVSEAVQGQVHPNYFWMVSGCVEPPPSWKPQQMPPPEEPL

In general, pKi refers to the negative decadic logarithm of the Ki, by convention in mol/L. For `Oc1ccc(Nc2nc(-c3ccc(Cl)cc3)cs2)cc1`, the pKi on Sphingosine kinase 2 [1] is 5.17.

A word on the pIC50: it is the negative decadic logarithm of the IC50, by convention in mol/L. Regarding `OC[C@H]1CCCN1Cc1ccc(COc2cccc(SCc3ccc(F)cc3)c2)cc1`, the pIC50 at Sphingosine kinase 1 is 6.12; on Sphingosine kinase 2 [2], 7.77. Moreover, the Ratio IC50 in the assay filed under Homo sapiens came out at 45.

As to `O=S(=O)(Oc1cccc(OCc2ccc(CN3CCC[C@@H]3CO)cc2)c1)c1ccccc1`, the pIC50 on Sphingosine kinase 1 is 7.96; on Sphingosine kinase 2 [2], 6.04. Further, in the assay filed under Homo sapiens, the Ratio IC50 stood at 0.012.

Regarding `OC[C@H]1CCCN1Cc1ccc(COc2cccc(OCc3ccc(Cl)cc3)c2)cc1`, the pIC50 on Sphingosine kinase 1 is 5.38; at Sphingosine kinase 2 [2] it was 7.39. In addition, the Ratio IC50 in the assay filed under Homo sapiens was determined as 101.

In the case of `OC[C@H]1CCCN1Cc1ccc(COc2cccc(SCc3ccc(Cl)cc3)c2)cc1`, the values for the pIC50 at Sphingosine kinase 1 and on Sphingosine kinase 2 [2] were 5.63 and 7.51, respectively. In addition, in the assay listed under Homo sapiens, the Ratio IC50 stood at 76.

`OC[C@H]1CCCN1Cc1ccc(COc2cccc(OCc3ccccc3)c2)cc1`: the pIC50 on Sphingosine kinase 1 is 7.85; at Sphingosine kinase 2 [2], 7.80. Also, the Ratio IC50 in the assay filed under Homo sapiens was 0.88.

What is called inhibition is the relative decrease from the control value, in per cent. Consider `O=S(=O)(Cc1cccc(OCc2ccc(CN3CCC[C@@H]3CO)cc2)c1)c1ccccc1`, for which, at Sphingosine kinase 1, the pIC50 was 6.84. In assay [3], the inhibition was found to be 16%. In addition, the Ratio IC50 in the assay filed under Homo sapiens was below 0.048.

On to `OC[C@H]1CCCN1Cc1ccc(COc2cccc(OCc3cccc(F)c3)c2)cc1`, for which the values for the pIC50 at Sphingosine kinase 1 and on Sphingosine kinase 2 [2] were 8.05 and 6.84, respectively. The Ratio IC50 in the assay filed under Homo sapiens is 0.063.

Regarding `OC[C@H]1CCCN1Cc1ccc(COc2cccc(CCc3ccccc3)c2)cc1`, the pIC50 at Sphingosine kinase 1 is 7.59; on Sphingosine kinase 2 [2], 7.46. Also, the Ratio IC50 in the assay listed under Homo sapiens was determined as 0.74.

As for `OC[C@H]1CCCN1Cc1ccc(COc2cccc(SCc3ccccc3)c2)cc1`, the pIC50 was 6.86 at Sphingosine kinase 1 and 7.59 on Sphingosine kinase 2 [2]. In addition, the Ratio IC50 in the assay filed under Homo sapiens came to 5.3.

Turning to `N#Cc1ccc(COc2cccc(OCc3ccc(CN4CCC[C@@H]4CO)cc3)c2)cc1`, the pIC50 on Sphingosine kinase 1 is below 5.52; on Sphingosine kinase 2 [2] it was 5.95. Further, in the assay listed under Homo sapiens, the Ratio IC50 was above 2.7.

Take `OC[C@H]1CCCN1Cc1ccc(COc2cccc(OCc3cccc(Cl)c3)c2)cc1`: the pIC50 is 7.36 at Sphingosine kinase 1 and 6.39 on Sphingosine kinase 2 [2]. Moreover, the Ratio IC50 in the assay filed under Homo sapiens was 0.11.

Consider `OC[C@H]1CCCN1Cc1ccc(COc2cccc(OCc3ccccc3Cl)c2)cc1`, for which the pIC50 is 7.41 on Sphingosine kinase 1 and 6.82 on Sphingosine kinase 2 [2]. Moreover, the Ratio IC50 in the assay filed under Homo sapiens came out at 0.26.

In the case of `OC[C@H]1CCCN1Cc1ccc(COc2cccc(OCc3ccc(F)cc3)c2)cc1`, the values for the pIC50 on Sphingosine kinase 1 and at Sphingosine kinase 2 [2] were 6.77 and 7.31, respectively. Moreover, the Ratio IC50 in the assay listed under Homo sapiens turned out to be 3.5.

Turning to `COc1ccc(COc2cccc(OCc3ccc(CN4CCC[C@@H]4CO)cc3)c2)cc1`, the pIC50 is below 5.52 on Sphingosine kinase 1 and 6.92 on Sphingosine kinase 2 [2]. The Ratio IC50 in the assay filed under Homo sapiens was above 25.

Take `OC[C@H]1CCCN1Cc1ccc(COc2cccc(OCc3ccccc3F)c2)cc1`: the pIC50 at Sphingosine kinase 1 was 7.39; on Sphingosine kinase 2 [2], 7.26. The Ratio IC50 in the assay listed under Homo sapiens stood at 0.75.

The record behind these values is ChEMBL document CHEMBL4390677, “Topographical Mapping of Isoform-Selectivity Determinants for J-Channel-Binding Inhibitors of Sphingosine Kinases 1 and 2” (J Med Chem, 2019).
